Article PMC12163657 (ACS Omega, 2025)

What was measured:
[1] = Plasma protein binding, rapid equilibrium dialysis, human plasma; format: in vitro ADME
ERα LBD = target: T1, ERα LBD (Homo sapiens, UniProt P03372); assay: LanthaScreen TR-FRET ERα competitive binding assay
T1 sequence (P03372 311-547 limits assumed): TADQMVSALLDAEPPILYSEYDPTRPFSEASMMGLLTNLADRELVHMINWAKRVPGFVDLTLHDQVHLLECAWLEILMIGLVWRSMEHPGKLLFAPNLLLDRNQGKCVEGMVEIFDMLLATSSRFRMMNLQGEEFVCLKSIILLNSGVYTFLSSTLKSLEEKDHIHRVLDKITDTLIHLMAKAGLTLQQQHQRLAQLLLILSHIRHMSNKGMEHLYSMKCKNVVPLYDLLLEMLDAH

GR = target: T2, GR (Homo sapiens, UniProt P04150); assay: Reporter assay of gene transcription activity, GR; format: cell-based
T2 sequence (P04150 1-777): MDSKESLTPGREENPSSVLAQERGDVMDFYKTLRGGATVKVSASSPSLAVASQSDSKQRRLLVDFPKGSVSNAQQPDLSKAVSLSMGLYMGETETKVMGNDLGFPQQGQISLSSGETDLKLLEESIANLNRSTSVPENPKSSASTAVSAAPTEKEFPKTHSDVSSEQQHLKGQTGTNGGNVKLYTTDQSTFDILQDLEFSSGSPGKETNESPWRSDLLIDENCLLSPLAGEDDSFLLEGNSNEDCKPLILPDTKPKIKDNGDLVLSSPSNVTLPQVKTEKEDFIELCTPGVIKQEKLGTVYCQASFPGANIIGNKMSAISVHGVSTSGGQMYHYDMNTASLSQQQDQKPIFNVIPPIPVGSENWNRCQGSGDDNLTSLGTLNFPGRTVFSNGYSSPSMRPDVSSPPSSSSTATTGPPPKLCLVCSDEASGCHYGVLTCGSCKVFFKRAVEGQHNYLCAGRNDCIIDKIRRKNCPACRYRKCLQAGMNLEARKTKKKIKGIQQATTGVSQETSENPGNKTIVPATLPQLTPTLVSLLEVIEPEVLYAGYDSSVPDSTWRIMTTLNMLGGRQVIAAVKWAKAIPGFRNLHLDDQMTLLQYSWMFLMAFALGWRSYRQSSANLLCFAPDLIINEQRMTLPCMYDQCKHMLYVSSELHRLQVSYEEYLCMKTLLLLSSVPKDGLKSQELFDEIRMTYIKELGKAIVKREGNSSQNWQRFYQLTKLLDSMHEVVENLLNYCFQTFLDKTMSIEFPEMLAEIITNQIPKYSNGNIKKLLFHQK

AR = target: T3, AR (Homo sapiens, UniProt P10275); assay: Reporter assay of gene transcription activity, AR; format: cell-based; settings: for IC50: reporter assay
T3 sequence (P10275 1-920): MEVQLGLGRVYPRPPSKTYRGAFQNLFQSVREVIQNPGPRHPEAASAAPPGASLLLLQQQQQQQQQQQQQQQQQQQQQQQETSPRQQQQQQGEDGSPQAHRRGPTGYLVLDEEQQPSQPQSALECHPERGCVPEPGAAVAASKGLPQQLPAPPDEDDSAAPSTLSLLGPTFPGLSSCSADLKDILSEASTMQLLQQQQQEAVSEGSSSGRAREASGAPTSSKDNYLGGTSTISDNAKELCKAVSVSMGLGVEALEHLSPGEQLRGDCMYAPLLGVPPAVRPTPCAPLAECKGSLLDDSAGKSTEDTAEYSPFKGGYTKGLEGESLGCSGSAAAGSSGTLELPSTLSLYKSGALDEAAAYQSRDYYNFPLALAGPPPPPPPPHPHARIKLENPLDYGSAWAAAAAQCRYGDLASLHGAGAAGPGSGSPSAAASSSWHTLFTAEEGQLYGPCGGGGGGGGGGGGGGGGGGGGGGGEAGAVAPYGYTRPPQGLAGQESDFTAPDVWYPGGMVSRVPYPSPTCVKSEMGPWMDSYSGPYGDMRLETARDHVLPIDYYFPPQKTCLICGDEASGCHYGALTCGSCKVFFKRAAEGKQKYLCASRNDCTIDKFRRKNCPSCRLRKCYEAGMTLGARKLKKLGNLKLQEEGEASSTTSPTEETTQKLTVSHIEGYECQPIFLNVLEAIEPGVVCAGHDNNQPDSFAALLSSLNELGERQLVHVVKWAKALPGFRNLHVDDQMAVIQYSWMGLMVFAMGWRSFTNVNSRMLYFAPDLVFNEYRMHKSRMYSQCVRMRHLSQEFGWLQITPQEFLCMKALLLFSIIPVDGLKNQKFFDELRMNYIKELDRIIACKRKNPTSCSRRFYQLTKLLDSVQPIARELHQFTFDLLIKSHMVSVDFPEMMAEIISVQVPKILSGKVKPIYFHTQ

ESR1 WT = target: T4, ESR1 WT (Homo sapiens, UniProt P03372); assay: AP; format: cell-based
T4 sequence (P03372 1-595): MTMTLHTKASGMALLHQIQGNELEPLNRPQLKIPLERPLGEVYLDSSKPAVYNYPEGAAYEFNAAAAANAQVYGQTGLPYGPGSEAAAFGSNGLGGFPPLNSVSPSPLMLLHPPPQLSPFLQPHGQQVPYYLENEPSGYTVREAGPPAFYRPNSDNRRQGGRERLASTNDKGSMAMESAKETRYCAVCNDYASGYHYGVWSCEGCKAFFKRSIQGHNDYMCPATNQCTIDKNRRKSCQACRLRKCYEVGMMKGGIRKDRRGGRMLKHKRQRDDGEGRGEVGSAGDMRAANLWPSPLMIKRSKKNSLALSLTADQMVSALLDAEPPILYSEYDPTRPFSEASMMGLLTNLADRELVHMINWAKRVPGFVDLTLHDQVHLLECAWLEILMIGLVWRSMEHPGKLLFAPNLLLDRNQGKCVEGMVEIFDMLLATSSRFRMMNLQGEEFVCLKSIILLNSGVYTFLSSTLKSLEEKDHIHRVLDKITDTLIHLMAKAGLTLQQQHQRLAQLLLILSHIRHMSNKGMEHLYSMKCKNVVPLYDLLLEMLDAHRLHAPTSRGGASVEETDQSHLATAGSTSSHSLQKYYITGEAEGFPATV

plasma protein-bound ([1]; across all species, including humans): > 99%
Plasma free drug percentage ([1]; hu plasma): 0.08%
IC50 (ERα LBD): 2 nM
IC50 (GR): > 3160 nM
agonist cross-reactivity on GR (GR; in words): no agonist cross-reactivity
GR pIC50, antag. mode (GR; reporter assay, antag. mode): <5.5
IC50 (AR; AR pIC50, agonist mode, agonist mode): > 3160 nM
IC50 (AR; AR pIC50, antag. mode, antag. mode (agonist-induced activity)): 1580 nM
agonist cross-reactivity on AR (AR; in words): no agonist cross-reactivity
IC50 (ESR1 WT): 2.51 nM
SMILES: CCCN1CC(Oc2ccc([C@@H]3c4[nH]c5ccccc5c4C[C@@H](C)N3CC(C)(C)F)cc2)C1 [compound 21, (1R,3R)-2-(2-Fluoro-2-methylpropyl)-3-methyl-1-(4-((1-propylazetidin-3-yl)oxy)phenyl)-2,3,4,9-tetrahydro-1H-pyrido[3,4-b]indole]
